The record followed here is US20250213533A1 (GH RESEARCH IRELAND LIMITED, priority 2022, published 2025).

For data set [1], the system named is Salmonella typhimurium (TA98, TA100, TA1535 and TA1537). Description: Bacterial mutation test, histidine-requiring strains. The following applies: up to 5000 μg/plate, absence and presence of rat liver S-9. The data set is classed as cell-based. The method, then: (§1) These conditions included treatments at concentrations up to 5000 μg/plate (the maximum recommended concentration according to current regulatory guidelines), in the absence and in the presence of a rat liver metabolic activation system (S-9).

In data set [2] the test system is Escherichia coli (WP2 uvrA pKM101). Kind of data set: Bacterial mutation test, tryptophan-requiring strain. It is filed as cell-based. The conditions noted are these: up to 5000 μg/plate, absence and presence of rat liver S-9. The method, then: as §1

Regarding `COc1ccc2[nH]cc(CCN(C)C)c2c1` [5-MeO-DMT], the induction of mutation result in data set [1] and in data set [2] was “did not induce mutation” each time.
